Test results reported in US20260250290A1 (BRISTOL-MYERS SQUIBB COMPANY, priority 2023, published 2026).
pIC50: −log10 of the molar value. Counter-ions that a name gives are not always drawn.

Target: T1, full length SGK1 (Homo sapiens, UniProt O00141)
T1 construct: 125 μM full length SGK1 (Life Technologies Part #PR7358A); purchased Life Technologies PR7358A
T1 sequence (O00141 1-431): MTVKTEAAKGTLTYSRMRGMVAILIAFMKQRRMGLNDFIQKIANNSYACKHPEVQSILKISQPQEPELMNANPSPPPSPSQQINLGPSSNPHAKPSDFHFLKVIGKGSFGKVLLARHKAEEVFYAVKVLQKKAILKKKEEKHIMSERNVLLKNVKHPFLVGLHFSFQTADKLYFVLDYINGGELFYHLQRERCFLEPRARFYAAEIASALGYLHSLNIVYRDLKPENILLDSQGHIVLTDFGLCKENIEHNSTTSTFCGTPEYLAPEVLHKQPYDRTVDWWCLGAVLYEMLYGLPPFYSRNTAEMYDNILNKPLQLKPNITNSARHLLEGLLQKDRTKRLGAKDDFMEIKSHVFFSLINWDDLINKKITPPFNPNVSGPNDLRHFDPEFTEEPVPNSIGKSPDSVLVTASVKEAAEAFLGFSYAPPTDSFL
Experiment: SGK1 inhibition Assay A (Caliper LabChip electrophoretic separation of fluorescent peptide substrate and phosphorylated product)
Type: biochemical
Settings: Assay A; 20 μM ATP, 40 min incubation; read-out: SGK1 IC50

pIC50 | SMILES
8.00 | CS(=O)(=O)c1ccc(-c2cc(N3CCC[C@@H](NC(=O)c4ccc(C5CC5)s4)C3)c3c(N)ncnn23)cc1 [Example 92, (R)-N-(1-(4-amino-7-(4-(methylsulfonyl)phenyl)pyrrolo[2,1-f][1,2,4]triazin-5-yl)piperidin-3-yl)-5-cyclopropylthiophene-2-carboxamide, TFA]
7.74 | Nc1ncnn2c(C3=CCN(C(=O)[C@H]4C[C@@H]4F)C3)cc(N3CCC[C@@H](NC(=O)c4sc(Cl)cc4OCCN4CCOCC4)C3)c12 (relative stereo) [Example 262, rel-N-((R)-1-(4-amino-7-(1-((1R,2S)-2-fluorocyclopropane-1-carbonyl)-2,5-dihydro-1H-pyrrol-3-yl)pyrrolo[2,1-f][1,2,4]triazin-5-yl)piperidin-3-yl)-5-chloro-3-(2-morpholinoethoxy)thiophene-2-carboxamide]
7.62 | C#Cc1cccc(C(=O)N[C@@H]2CCCN(c3cc(-c4ccc(S(C)(=O)=O)cc4)n4ncnc(N)c34)C2)c1 [Example 34, (R)-N-(1-(4-amino-7-(4-(methylsulfonyl)phenyl)pyrrolo[2,1-f][1,2,4]triazin-5-yl)piperidin-3-yl)-3-ethynylbenzamide]
7.44 | CN(C)CCOc1c(C(=O)N[C@@H]2CCCN(c3cc(-c4ccc(C#N)c(F)c4)n4ncnc(N)c34)C2)[nH]c2ccccc12 [Example 368, (R)-N-(1-(4-amino-7-(4-cyano-3-fluorophenyl)pyrrolo[2,1-f][1,2,4]triazin-5-yl)piperidin-3-yl)-3-(2-(dimethylamino)ethoxy)-1H-indole-2-carboxamide]
6.08 | CS(=O)(=O)c1ccc(-c2cc(N3CCC[C@@H](C(=O)NCc4ccccc4)C3)c3c(N)ncnn23)cc1 [Example 106, (R)-1-(4-amino-7-(4-(methylsulfonyl)phenyl)pyrrolo [2,1-f][1,2,4]triazin-5-yl)-N-benzylpiperidine-3-carboxamide]
7.00 | COC(=O)N1CC=C(c2cc(N3CCC[C@@H](NC(=O)c4sc5ccccc5c4OC4CCN(C(=O)OC(C)(C)C)CC4)C3)c3c(N)ncnn23)C1 [Example 651, ter-butyl (R)-4-((2-((1-(4-amino-7-(1-(methoxycarbonyl)-2,5-dihydro-1H-pyrrol-3-yl)pyrrolo[2,1-f][1,2,4]triazin-5-yl)piperidin-3-yl)carbamoyl)benzo[b]thiophen-3-yl)oxy)piperidine-1-carboxylate]
9.00 | CN(C)CCOc1cc(C(F)F)sc1C(=O)N[C@@H]1CCCN(c2cc(-c3ccc(C=O)cc3)n3ncnc(N)c23)C1 [Example 308, (R)-N-(1-(4-amino-7-(4-formylphenyl)pyrrolo[2,1-f][1,2,4]triazin-5-yl)piperidin-3-yl)-5-(difluoromethyl)-3-(2-(dimethylamino)ethoxy)thiophene-2-carboxamide]
7.43 | COC(=O)N1CC=C(c2cc(N3CCC[C@@H](NC(=O)c4sc(Cl)cc4OCCN(C)C)C3)c3c(N)ncnn23)CC1 [Example 174, methyl (R)-4-(4-amino-5-(3-(5-chloro-3-(2-(dimethylamino)ethoxy)thiophene-2-carboxamido)piperidin-1-yl)pyrrolo[2,1-f][1,2,4]triazin-7-yl)-3,6-dihydropyridine-1(2H)-carboxylate]
8.52 | Nc1ncnn2c(-c3ccn[nH]3)cc(N3CCC[C@@H](NC(=O)c4ccc(Cl)s4)C3)c12 [Example 211, (R)-N-(1-(4-amino-7-(1H-pyrazol-5-yl)pyrrolo[2,1-f][1,2,4]triazin-5-yl)piperidin-3-yl)-5-chlorothiophene-2-carboxamide]
8.15 | CC(=O)N1CC=C(c2cc(N3CCCC(NC(=O)c4sc(Cl)cc4OC4CC5CC4CN5C(C)C)C3)c3c(N)ncnn23)C1 (single isomer, unassigned) [Example 611]
8.70 | CN(C)CCOc1cc(C2CC2)sc1C(=O)N[C@@H]1CCCN(c2cc(-c3ccc(C#N)nc3)n3ncnc(N)c23)C1 [Example 372, (R)-N-(1-(4-amino-7-(6-cyanopyridin-3-yl)pyrrolo[2,1-f][1,2,4]triazin-5-yl)piperidin-3-yl)-5-cyclopropyl-3-(2-(dimethylamino)ethoxy) thiophene-2-carboxamide]
6.86 | Nc1ncnn2c(-c3ccc(OC(F)F)nc3)cc(N3CCC[C@@H](NC(=O)c4ccc(C(F)F)s4)C3)c12 [Example 528, (R)-N-(1-(4-amino-7-(6-(difluoromethoxy)pyridin-3-yl)pyrrolo[2,1-f][1,2,4]triazin-5-yl)piperidin-3-yl)-5-(difluoromethyl)thiophene-2-carboxamide]
8.05 | CC(=O)N1CC=C(c2cc(N3CCC[C@@H](NC(=O)c4cccc(N5CC(=O)NC(C)C5)n4)C3)c3c(N)ncnn23)C1 (stereo partly drawn) [Example 775, N-((R)-1-(7-(1-acetyl-2,5-dihydro-1H-pyrrol-3-yl)-4-aminopyrrolo[2,1-f][1,2,4]triazin-5-yl)piperidin-3-yl)-6-(3-methyl-5-oxopiperazin-1-yl)picolinamide, 2 TFA]
8.05 | CC(=O)N1CC=C(c2cc(N3CCC[C@@H](NC(=O)c4sc(Cl)cc4OC4CC5CC4CN5)C3)c3c(N)ncnn23)C1 (stereo partly drawn) [Example 606, 3-((2-azabicyclo[2.2.1]heptan-5-yl)oxy)-N-((R)-1-(7-(1-acetyl-2,5-dihydro-1H-pyrrol-3-y1)-4-aminopyrrolo[2,1-f][1,2,4]triazin-5~yl)piperidin-3-y1)-5-chlorothiophene-2-carboxamide]
6.58 | COc1cc(C(=O)N[C@@H]2CCCN(c3cc(-c4ccc(S(C)(=O)=O)cc4)n4ncnc(N)c34)C2)c(OC)nn1 [Example 67, (R)-N-(1-(4-amino-7-(4-(methylsulfonyl)phenyl)pyrrolo[2,1-f][1,2,4]triazin-5-yl)piperidin-3-yl)-3,6-dimethoxypyridazine-4-carboxamide]
8.70 | NC(=O)c1ccc(-c2cc(N3CCC[C@@H](NC(=O)c4sc(Cl)cc4OC4CC5(CNC5)C4)C3)c3c(N)ncnn23)cc1F [Example 590, (R)-3-((2-azaspiro[3.3]heptan-6-yl)oxy)-N-(1-(4-amino-7-(4-carbamoyl-3-fluorophenyl)pyrrolo[2,1-f][1,2,4]triazin-5-yl)piperidin-3-yl)-5-chlorothiophene-2-carboxamide]
8.70 | CN(C)CCOc1cc(Cl)sc1C(=O)N[C@@H]1CCCN(c2cc(-c3ccnc(C#N)c3)n3ncnc(N)c23)C1 [Example 280, (R)-N-(1-(4-amino-7-(2-cyanopyridin-4-yl)pyrrolo[2,1-f][1,2,4]triazin-5-yl)piperidin-3-yl)-5-chloro-3-(2-(dimethylamino)ethoxy) thiophene-2-carboxamide]
7.92 | Nc1ncnn2c(-c3ccc4ncnn4c3)cc(N3CCC[C@@H](NC(=O)c4ccc(Cl)s4)C3)c12 [Example 247]
7.39 | CS(=O)(=O)c1ccc(-c2cc(N3CCC[C@@H](NC(=O)c4cn5ccccc5n4)C3)c3c(N)ncnn23)cc1 [Example 36]
8.70 | NC(=O)c1ccc(-c2cc(N3CCC[C@@H](NC(=O)c4sc(C(F)F)cc4OC4CCNCC4)C3)c3c(N)ncnn23)cc1F [Example 349, (R)-N-(1-(4-amino-7-(4-carbamoyl-3-fluorophenyl)pyrrolo[2,1-f][1,2,4]triazin-5-yl)piperidin-3-yl)-5-(difluoromethyl)-3-(piperidin-4-yloxy)thiophene-2-carboxamide]
8.52 | CS(=O)(=O)N1CC=C(c2cc(N3CCC[C@@H](NC(=O)c4cccs4)C3)c3c(N)ncnn23)C1 [Example 135, (R)—N-(1-(4-amino-7-(1-(methylsulfonyl)-2,5-dihydro-1H-pyrrol-3-yl)pyrrolo[2,1-f][1,2,4]triazin-5-yl)piperidin-3-yl)thiophene-2-carboxamide, TFA]
8.30 | Nc1ncnn2c(-c3ccncc3)cc(N3CCC[C@@H](NC(=O)c4ccccc4)C3)c12 [Example 126, N-[(3R)-1-[4-amino-7-(pyridin-4-yl)pyrrolo[2,1-f][1,2,4]triazin-5-yl]piperidin-3-yl]benzamide]
7.96 | CS(=O)(=O)c1ccc(-c2cc(N3CCC[C@@H](NC(=O)c4ccnc(F)c4)C3)c3c(N)ncnn23)cc1 [Example 32, (R)-N-(1-(4-amino-7-(4-(methylsulfonyl)phenyl)pyrrolo[2,1-f][1,2,4]triazin-5-yl)piperidin-3-yl)-2-fluoroisonicotinamide, TFA]
8.05 | Nc1ncnn2c(-c3ccnc(C(F)(F)F)c3)cc(N3CCC[C@@H](NC(=O)c4sc(Cl)cc4OCCN4CCOCC4)C3)c12 [Example 267, (R)—N-(1-(4-amino-7-(2-(trifluoromethyl)pyridin-4-yl)pyrrolo[2,1-f][1,2,4]triazin-5-yl)piperidin-3-yl)-5-chloro-3-(2-morpholinoethoxy)thiophene-2-carboxamide]
8.70 | COC(=O)N1CC=C(c2cc(N3CCC[C@@H](NC(=O)c4sc(Cl)cc4OC4CCNCC4)C3)c3c(N)ncnn23)C1 [Example 561]
7.82 | N#Cc1ccc(-c2cc(N3CCC[C@@H](NC(=O)c4sc(C(F)F)cc4N4CCOCC4)C3)c3c(N)ncnn23)cn1 [Example 318, (R)—N-(1-(4-amino-7-(6-cyanopyridin-3-yl)pyrrolo[2,1-f][1,2,4]triazin-5-yl)piperidin-3-yl)-5-(difluoromethyl)-3-morpholinothiophene-2-carboxamide]
7.57 | CS(=O)(=O)c1ccc(-c2cc(N3CCC[C@@H](NC(=O)c4cccc(Br)c4)C3)c3c(N)ncnn23)cc1 [Example 85, (R)-N-(1-(4-amino-7-(4-(methylsulfonyl)phenyl)pyrrolo[2,1-f][1,2,4]triazin-5-yl)piperidin-3-yl)-3-bromobenzamide, TFA]
